Experimental data reported in patent US10750743B2, “Pyridazinone herbicides” (E.I. DU PONT DE NEMOURS AND COMPANY, priority 2015, dated 2020).

How the values were obtained:
Assay type in all cases: in vivo
[1] = test system: barnyardgrass (Echinochloa crus-galli); test: Test A preemergence, directed soil spray, visual injury rating; settings: 0 is no effect, 100 is complete control
In short: (§1)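 Seeds sown in a loam soil–sand blend received a directed preemergence soil spray of test chemical in a non-phytotoxic solvent mixture with surfactant. Postemergence plants were sprayed at 2 to 10 cm, one- to two-leaf stage. After approximately 10 d in greenhouse, injury was visually rated 0 (no effect) to 100 (complete control) against untreated controls.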

[2] = test system: foxtail, giant (giant foxtail, Setaria faberii); test: as above; settings: 0 is no effect, 100 is complete control
In short: as §1

[3] = test system: kochia (Kochia scoparia); test: as above; settings: 0 is no effect, 100 is complete control
In short: as §1

[4] = test system: pigweed (Amaranthus retroflexus); test: as above; settings: 0 is no effect, 100 is complete control
In short: as §1

[5] = test system: ragweed (common ragweed, Ambrosia elatior); test: as above; settings: 0 is no effect, 100 is complete control
In short: as §1

[6] = test system: ryegrass, It. (Italian ryegrass, Lolium multiflorum); test: as above; settings: 0 is no effect, 100 is complete control
In short: as §1

[7] = test system: barnyardgrass (Echinochloa crus-galli); test: Test B flooded paddy test, visual rating; settings: Flood, 250 g ai/ha, applied to paddy water, rated after 13 to 15 d
In short: (§2)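 Plants at the 2-leaf stage were flooded to 3 cm above soil, and test compounds were applied directly into the paddy water, which was held at that depth throughout. After 13 to 15 d in a greenhouse, injury was rated visually against untreated controls on a 0–100 scale (0 no effect, 100 complete control).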

[8] = test system: ducksalad (Heteranthera limosa); test: Test B flooded paddy test, visual rating; settings: Flood, 250 g ai/ha, applied to paddy water, rated after 13 to 15 d
In short: as §2

[9] = test system: rice (Oryza sativa); test: Test B flooded paddy test, visual rating; settings: Flood, 250 g ai/ha, applied to paddy water, rated after 13 to 15 d
In short: as §2

[10] = test system: sedge, umbrella (small-flower umbrella sedge, Cyperus difformis); test: Test B flooded paddy test, visual rating; settings: Flood, 250 g ai/ha, applied to paddy water, rated after 13 to 15 d
In short: as §2

[11] = test system: barnyardgrass (Echinochloa crus-galli); test: Test A postemergence application, visual injury rating; settings: 0 to 100 scale, 0 no effect, 100 complete control
In short: as §1

[12] = test system: blackgrass (Alopecurus myosuroides); test: as above; settings: 0 to 100 scale, 0 no effect, 100 complete control
In short: as §1

[13] = test system: corn (Zea mays); test: as above; settings: 0 to 100 scale, 0 no effect, 100 complete control
In short: as §1

[14] = test system: foxtail, giant (giant foxtail, Setaria faberii); test: as above; settings: 0 to 100 scale, 0 no effect, 100 complete control
In short: as §1

[15] = test system: galium (catchweed bedstraw, Galium aparine); test: as above; settings: 0 to 100 scale, 0 no effect, 100 complete control
In short: as §1

[16] = test system: kochia (Kochia scoparia); test: as above; settings: 0 to 100 scale, 0 no effect, 100 complete control
In short: as §1

[17] = test system: pigweed (Amaranthus retroflexus); test: as above; settings: 0 to 100 scale, 0 no effect, 100 complete control
In short: as §1

[18] = test system: ragweed (common ragweed, Ambrosia elatior); test: as above; settings: 0 to 100 scale, 0 no effect, 100 complete control
In short: as §1

[19] = test system: ryegrass, It. (Italian ryegrass, Lolium multiflorum); test: as above; settings: 0 to 100 scale, 0 no effect, 100 complete control
In short: as §1

[20] = test system: wheat (Triticum aestivum); test: as above; settings: 0 to 100 scale, 0 no effect, 100 complete control
In short: as §1

Row | Structure (SMILES) | Plant response rating (0 to 100 scale), Barnyardgrass ([1]; 125 g ai/ha) | Plant response rating (0 to 100 scale), Barnyardgrass ([1]; 500 g ai/ha) | Plant response rating (0 to 100 scale), Foxtail, Giant ([2]; 125 g ai/ha) | Plant response rating (0 to 100 scale), Foxtail, Giant ([2]; 500 g ai/ha) | Plant response rating (0 to 100 scale), Kochia ([3]; 125 g ai/ha) | Plant response rating (0 to 100 scale), Kochia ([3]; 500 g ai/ha) | Plant response rating (0 to 100 scale), Pigweed ([4]; 125 g ai/ha) | Plant response rating (0 to 100 scale), Pigweed ([4]; 500 g ai/ha) | Plant response rating (0 to 100 scale), Ragweed ([5]; 125 g ai/ha) | Plant response rating (0 to 100 scale), Ragweed ([5]; 500 g ai/ha) | Plant response rating (0 to 100 scale), Ryegrass, It. ([6]; 125 g ai/ha) | Plant response rating (0 to 100 scale), Ryegrass, It. ([6]; 500 g ai/ha) | Barnyardgrass plant response rating (0 to 100 scale, 0 is no effect, 100 is complete control) [7] | Ducksalad plant response rating (0 to 100 scale, 0 is no effect, 100 is complete control) [8] | Rice plant response rating (0 to 100 scale, 0 is no effect, 100 is complete control) [9] | Sedge, Umbrella plant response rating (0 to 100 scale, 0 is no effect, 100 is complete control) [10] | Barnyardgrass plant response rating ([11]; 125 g ai/ha) | Barnyardgrass plant response rating ([11]; 500 g ai/ha) | Blackgrass plant response rating ([12]; 125 g ai/ha) | Blackgrass plant response rating ([12]; 500 g ai/ha) | other results
1 | Cc1nn(C)c(=O)c(-c2c(C)sc3ncccc23)c1OC(=O)OC(C)C [Compound 15] | 0 | 0 | 0 | 0 | 0 | 0 | 0 | 0 | 0 | 0 | 0 | 0 | 0 | 0 | 0 | 0 | 0 | 0 | 0 | 0 | Corn plant response rating ([13]; 125 g ai/ha): 0; Corn plant response rating ([13]; 500 g ai/ha): 0; Foxtail, Giant plant response rating ([14]; 125 g ai/ha): 0; Foxtail, Giant plant response rating ([14]; 500 g ai/ha): 0; Galium plant response rating ([15]; 125 g ai/ha): 0; Galium plant response rating ([15]; 500 g ai/ha): 0; Kochia plant response rating ([16]; 125 g ai/ha): 0; Kochia plant response rating ([16]; 500 g ai/ha): 0; Pigweed plant response rating ([17]; 125 g ai/ha): 0; Pigweed plant response rating ([17]; 500 g ai/ha): 0; Ragweed plant response rating ([18]; 125 g ai/ha): 0; Ragweed plant response rating ([18]; 500 g ai/ha): 0; Ryegrass, It. plant response rating ([19]; 125 g ai/ha): 0; Ryegrass, It. plant response rating ([19]; 500 g ai/ha): 0; Wheat plant response rating ([20]; 125 g ai/ha): 0; Wheat plant response rating ([20]; 500 g ai/ha): 0
2 | Cc1ccc2ccoc2c1-c1c(O)c(C)nn(C)c1=O [Compound 7] | 10 | 90 | 20 | 90 | 30 | 90 | 100 | 100 | 40 | 90 | 100 | 100 | 0 | 0 | 0 | 0 | 30 | 80 | 80 | 90 | Corn plant response rating ([13]; 125 g ai/ha): 0; Corn plant response rating ([13]; 500 g ai/ha): 60; Foxtail, Giant plant response rating ([14]; 125 g ai/ha): 80; Foxtail, Giant plant response rating ([14]; 500 g ai/ha): 90; Galium plant response rating ([15]; 125 g ai/ha): 100; Galium plant response rating ([15]; 500 g ai/ha): 100; Kochia plant response rating ([16]; 125 g ai/ha): 100; Kochia plant response rating ([16]; 500 g ai/ha): 100; Pigweed plant response rating ([17]; 125 g ai/ha): 90; Pigweed plant response rating ([17]; 500 g ai/ha): 90; Ragweed plant response rating ([18]; 125 g ai/ha): 90; Ragweed plant response rating ([18]; 500 g ai/ha): 90; Ryegrass, It. plant response rating ([19]; 125 g ai/ha): 100; Ryegrass, It. plant response rating ([19]; 500 g ai/ha): 100; Wheat plant response rating ([20]; 125 g ai/ha): 20; Wheat plant response rating ([20]; 500 g ai/ha): 70
3 | COc1ncc(-c2c(O)c(C)nn(C)c2=O)c2ccccc12 [Compound 16] | 0 | 0 | 0 | 0 | 40 | 100 | 30 | 100 | 30 | 70 | 80 | 90 | 0 | 0 | 0 | 0 | 0 | 10 | 0 | 20 | Corn plant response rating ([13]; 125 g ai/ha): 0; Corn plant response rating ([13]; 500 g ai/ha): 0; Foxtail, Giant plant response rating ([14]; 125 g ai/ha): 0; Foxtail, Giant plant response rating ([14]; 500 g ai/ha): 0; Galium plant response rating ([15]; 125 g ai/ha): 70; Galium plant response rating ([15]; 500 g ai/ha): 100; Kochia plant response rating ([16]; 125 g ai/ha): 70; Kochia plant response rating ([16]; 500 g ai/ha): 100; Pigweed plant response rating ([17]; 125 g ai/ha): 40; Pigweed plant response rating ([17]; 500 g ai/ha): 70; Ragweed plant response rating ([18]; 125 g ai/ha): 30; Ragweed plant response rating ([18]; 500 g ai/ha): 70; Ryegrass, It. plant response rating ([19]; 125 g ai/ha): 90; Ryegrass, It. plant response rating ([19]; 500 g ai/ha): 100; Wheat plant response rating ([20]; 125 g ai/ha): 0; Wheat plant response rating ([20]; 500 g ai/ha): 0
4 | Cc1nn(C)c(=O)c(-c2cccc3scnc23)c1O [Compound 1] | 0 | 20 | 0 | 20 | 0 | 0 | 0 | 0 | 0 | 20 | 0 | 70 | 0 | 0 | 0 | 0 | 0 | 0 | 0 | 10 | Corn plant response rating ([13]; 125 g ai/ha): 0; Corn plant response rating ([13]; 500 g ai/ha): 0; Foxtail, Giant plant response rating ([14]; 125 g ai/ha): 0; Foxtail, Giant plant response rating ([14]; 500 g ai/ha): 0; Galium plant response rating ([15]; 125 g ai/ha): 0; Galium plant response rating ([15]; 500 g ai/ha): 30; Kochia plant response rating ([16]; 125 g ai/ha): 0; Kochia plant response rating ([16]; 500 g ai/ha): 0; Pigweed plant response rating ([17]; 125 g ai/ha): 0; Pigweed plant response rating ([17]; 500 g ai/ha): 10; Ragweed plant response rating ([18]; 125 g ai/ha): 0; Ragweed plant response rating ([18]; 500 g ai/ha): 10; Ryegrass, It. plant response rating ([19]; 125 g ai/ha): 0; Ryegrass, It. plant response rating ([19]; 500 g ai/ha): 40; Wheat plant response rating ([20]; 125 g ai/ha): 0; Wheat plant response rating ([20]; 500 g ai/ha): 0
5 | Cc1nc2c(-c3c(O)c(C)nn(C)c3=O)cccc2s1 [Compound 27] | 0 | 0 | 0 | 50 | 0 | 0 | 0 | 0 | 20 | 20 | 30 | 40 | 0 | 0 | 0 | 0 | 0 | 20 | 0 | 30 | Corn plant response rating ([13]; 125 g ai/ha): 0; Corn plant response rating ([13]; 500 g ai/ha): 0; Foxtail, Giant plant response rating ([14]; 125 g ai/ha): 20; Foxtail, Giant plant response rating ([14]; 500 g ai/ha): 40; Galium plant response rating ([15]; 125 g ai/ha): 0; Galium plant response rating ([15]; 500 g ai/ha): 60; Kochia plant response rating ([16]; 125 g ai/ha): 0; Kochia plant response rating ([16]; 500 g ai/ha): 0; Pigweed plant response rating ([17]; 125 g ai/ha): 0; Pigweed plant response rating ([17]; 500 g ai/ha): 0; Ragweed plant response rating ([18]; 125 g ai/ha): 0; Ragweed plant response rating ([18]; 500 g ai/ha): 30; Ryegrass, It. plant response rating ([19]; 125 g ai/ha): 20; Ryegrass, It. plant response rating ([19]; 500 g ai/ha): 40; Wheat plant response rating ([20]; 125 g ai/ha): 0; Wheat plant response rating ([20]; 500 g ai/ha): 0
